Experimental data reported in article PMC4500456 (Journal of Medicinal Chemistry, 2015).

Tested on: P. falciparum W2 (chloroquine resistant) strain
Test: In vitro activity against cultured W2 strain P. falciparum
Type: cell-based, Plasmodium falciparum

SMILES | fold more active than acid compound 4 (ester 5 vs acid 4, W2 and 3D7 strains) | IC50 (Plasmodium falciparum, W2, 48 h, read-out: IC50 (nM) (W2))
COC(=O)c1ccc(Oc2ccc3c(c2)B(O)OC3)cn1 [Compound 5, Methyl 5-(1-Hydroxy-1,3-dihydrobenzo[c][1,2]oxaborol-6-yloxy)picolinate] | about 5 fold | 
CCN(CC)CCCC(C)Nc1ccnc2cc(Cl)ccc12 (centres unmarked) [chloroquine] |  | 21 ± 6
